{"source": "paper PMC5218480", "about": "(PLoS ONE, 2017)", "tested_on": "MV-4-11 cells", "assay": "Gene expression microarray analysis (Affymetrix PrimeView) and GSEA", "type": "cell-based, human", "set-up": "RFU PODN (11730768_x_at) / Fold change /veh PODN (11730768_x_at) / RFU LINC00158 (11744669_a_at) / Fold change /veh LINC00158 (11744669_a_at) / RFU DUSP10 (11751237_a_at) / Fold change /veh DUSP10 (11751237_a_at) / RFU ID3 (11757404_x_at) / Fold change /veh ID3 (11757404_x_at) / RFU PLEKHG5 (11737974_s_at) / Fold change /veh PLEKHG5 (11737974_s_at) / RFU LRRC4B (11730491_at) / Fold change /veh LRRC4B (11730491_at) / RFU GIMAP4 (11747438_a_at) / Fold change /veh GIMAP4 (11747438_a_at) / RFU KRT8 (11758183_x_at) / Fold change /veh KRT8 (11758183_x_at) / RFU CNN1 (11734310_a_at) / Fold change /veh CNN1 (11734310_a_at) / RFU VPS37D (11726825_at) / Fold change /veh VPS37D (11726825_at) / RFU C10orf10 (11716522_x_at) / Fold change /veh C10orf10 (11716522_x_at) / RFU KIR2DL2 /// KIR2DL4 /// KIR2DL5A /// KIR2DL5B /// KIR2DS1 /// KIR2DS2 /// KIR2DS3 /// KIR2DS4 /// KIR3DL3 /// KIR3DL3 /// KIR3DS1 (11738374_at) / Fold change /veh KIR2DL2 /// KIR2DL4 /// KIR2DL5A /// KIR2DL5B /// KIR2DS1 /// KIR2DS2 /// KIR2DS3 /// KIR2DS4 /// KIR3DL3 /// KIR3DL3 /// KIR3DS1 (11738374_at) / RFU C1QL1 (11718748_at) / Fold change /veh C1QL1 (11718748_at) / RFU TMPRSS4 (11747572_a_at) / Fold change /veh TMPRSS4 (11747572_a_at) / RFU HAMP (11756126_x_at) / Fold change /veh HAMP (11756126_x_at) / RFU RNFT2 (11725882_a_at) / Fold change /veh RNFT2 (11725882_a_at) / RFU NR4A2 (11747474_a_at) / Fold change /veh NR4A2 (11747474_a_at) / RFU ABCC12 (11746883_a_at) / Fold change /veh ABCC12 (11746883_a_at) / RFU TMEM136 (11760407_x_at) / Fold change /veh TMEM136 (11760407_x_at) / RFU CLDN22 /// WWC2 (11732394_at) / Fold change /veh CLDN22 /// WWC2 (11732394_at) / RFU HLA-DPB1 (11760878_x_at) / Fold change /veh HLA-DPB1 (11760878_x_at) / RFU SPINT1 (11716480_a_at) / Fold change /veh SPINT1 (11716480_a_at) / RFU GAP43 (11754022_s_at) / Fold change /veh GAP43 (11754022_s_at) / RFU A4GNT (11735810_at) / Fold change /veh A4GNT (11735810_at) / RFU PRB3 (11715151_x_at) / Fold change /veh PRB3 (11715151_x_at) / RFU TUBB4B (11761932_at) / Fold change /veh TUBB4B (11761932_at) / RFU CAPN14 (11732068_a_at) / Fold change /veh CAPN14 (11732068_a_at) / RFU TMCC2 (11721928_a_at) / Fold change /veh TMCC2 (11721928_a_at) / RFU IRGQ (11745062_a_at) / Fold change /veh IRGQ (11745062_a_at) / RFU FAM174B (11720279_a_at) / Fold change /veh FAM174B (11720279_a_at) / RFU TMPRSS4 (11748680_a_at) / Fold change /veh TMPRSS4 (11748680_a_at) / RFU FAM212B (11763350_a_at) / Fold change /veh FAM212B (11763350_a_at) / RFU PLEKHG5 (11743358_a_at) / Fold change /veh PLEKHG5 (11743358_a_at) / RFU ZSCAN30 (11745921_a_at) / Fold change /veh ZSCAN30 (11745921_a_at) / RFU CMKLR1 (11741424_a_at) / Fold change /veh CMKLR1 (11741424_a_at) / RFU LOC101060620 /// MAPK8IP1 (11723275_at) / Fold change /veh LOC101060620 /// MAPK8IP1 (11723275_at) / RFU SPTSSB (11747773_x_at) / Fold change /veh SPTSSB (11747773_x_at) / RFU PRSS12 (11739890_at) / Fold change /veh PRSS12 (11739890_at) / RFU BIN1 (11741810_x_at) / Fold change /veh BIN1 (11741810_x_at) / RFU WNT11 (11732464_a_at) / Fold change /veh WNT11 (11732464_a_at) / RFU C10orf10 (11716521_a_at) / Fold change /veh C10orf10 (11716521_a_at) / RFU C5orf56 (11738089_at) / Fold change /veh C5orf56 (11738089_at) / RFU CYB561 (11721691_x_at) / Fold change /veh CYB561 (11721691_x_at) / RFU ANKRD19P (11752326_a_at) / Fold change /veh ANKRD19P (11752326_a_at) / RFU OR2T12 /// OR2T33 /// OR2T8 (11738714_s_at) / Fold change /veh OR2T12 /// OR2T33 /// OR2T8 (11738714_s_at) / RFU VCAN (11748164_a_at) / Fold change /veh VCAN (11748164_a_at) / RFU JSRP1 (11732532_at) / Fold change /veh JSRP1 (11732532_at) / RFU KRTAP10-11 (11738290_x_at) / Fold change /veh KRTAP10-11 (11738290_x_at) / RFU MYO3A (11730013_a_at) / Fold change /veh MYO3A (11730013_a_at) / RFU EBF3 (11725865_a_at) / Fold change /veh EBF3 (11725865_a_at) / RFU CAMK2N1 (11719241_x_at) / Fold change /veh CAMK2N1 (11719241_x_at) / RFU C5orf56 (11738088_a_at) / Fold change /veh C5orf56 (11738088_a_at) / RFU OLFML3 (11715873_a_at) / Fold change /veh OLFML3 (11715873_a_at) / RFU LOC100653217 /// NTM (11731650_a_at) / Fold change /veh LOC100653217 /// NTM (11731650_a_at) / RFU MAPK11 (11762145_a_at) / Fold change /veh MAPK11 (11762145_a_at) / RFU FIZ1 (11724087_x_at) / Fold change /veh FIZ1 (11724087_x_at) / RFU OASL (11726364_x_at) / Fold change /veh OASL (11726364_x_at) / RFU SOX15 (11748057_x_at) / Fold change /veh SOX15 (11748057_x_at) / RFU CD79A (11719716_a_at) / Fold change /veh CD79A (11719716_a_at) / RFU HIST1H1D (11736915_at) / Fold change /veh HIST1H1D (11736915_at) / RFU CASKIN2 (11723855_a_at) / Fold change /veh CASKIN2 (11723855_a_at) / RFU LOC730098 (11760151_x_at) / Fold change /veh LOC730098 (11760151_x_at) / RFU OR4N2 (11742367_at) / Fold change /veh OR4N2 (11742367_at) / RFU PRRT2 (11749266_a_at) / Fold change /veh PRRT2 (11749266_a_at) / RFU SNX32 (11753110_a_at) / Fold change /veh SNX32 (11753110_a_at) / RFU CDHR5 (11726645_a_at) / Fold change /veh CDHR5 (11726645_a_at) / RFU RCAN1 (11760418_a_at) / Fold change /veh RCAN1 (11760418_a_at) / RFU FAM167A (11723789_a_at) / Fold change /veh FAM167A (11723789_a_at) / RFU FAM26E (11764081_at) / Fold change /veh FAM26E (11764081_at) / RFU ISYNA1 (11749810_s_at) / Fold change /veh ISYNA1 (11749810_s_at) / RFU ACY1 (11761880_at) / Fold change /veh ACY1 (11761880_at) / RFU 11764098_at / Fold change /veh 11764098_at / RFU SAMD14 (11745864_x_at) / Fold change /veh SAMD14 (11745864_x_at) / RFU NPB (11741838_a_at) / Fold change /veh NPB (11741838_a_at) / RFU TMPRSS6 (11731388_a_at) / Fold change /veh TMPRSS6 (11731388_a_at) / RFU KRTAP10-2 (11738614_at) / Fold change /veh KRTAP10-2 (11738614_at) / RFU ARHGAP8 /// PRR5-ARHGAP8 (11727945_x_at) / Fold change /veh ARHGAP8 /// PRR5-ARHGAP8 (11727945_x_at) / RFU KRTAP5-7 /// NADSYN1 (11734609_at) / Fold change /veh KRTAP5-7 /// NADSYN1 (11734609_at) / RFU RASL12 (11751679_a_at) / Fold change /veh RASL12 (11751679_a_at) / RFU CDKN2B (11736163_a_at) / Fold change /veh CDKN2B (11736163_a_at) / RFU PRF1 (11729649_at) / Fold change /veh PRF1 (11729649_at) / RFU, ZNF638 /// ZNF638-IT1 / Fold change vs veh, ZNF638 /// ZNF638-IT1 / RFU, PANK3 / Fold change vs veh, PANK3 / RFU, SH3YL1 / Fold change vs veh, SH3YL1 / RFU, ZEB2 / Fold change vs veh, ZEB2 / RFU, NRIP1 / Fold change vs veh, NRIP1 / RFU, PTTG1IP / Fold change vs veh, PTTG1IP / RFU, CAPN2 / Fold change vs veh, CAPN2 / RFU, MED14 / Fold change vs veh, MED14 / RFU, SNORA58 / Fold change vs veh, SNORA58 / RFU, C1orf63 / Fold change vs veh, C1orf63 / RFU, LRRFIP1 / Fold change vs veh, LRRFIP1 / RFU, NDUFAF7 / Fold change vs veh, NDUFAF7 / RFU, SLC12A2 / Fold change vs veh, SLC12A2 / RFU, IBTK / Fold change vs veh, IBTK / RFU, ESF1 / Fold change vs veh, ESF1 / Fold change vs veh, TMEM50B / RFU, TAOK1 / Fold change vs veh, TAOK1 / RFU, ACBD3 / Fold change vs veh, ACBD3 / RFU, TMA16 / Fold change vs veh, TMA16 / RFU, RWDD3 / Fold change vs veh, RWDD3 / RFU, BCAT1 / Fold change vs veh, BCAT1 / RFU, EDEM3 / Fold change vs veh, EDEM3 / RFU, TMEM33 / Fold change vs veh, TMEM33 / RFU, WDR75 / Fold change vs veh, WDR75 / RFU, AHCTF1 / Fold change vs veh, AHCTF1 / RFU, TFRC / Fold change vs veh, TFRC / RFU, ZDHHC17 / Fold change vs veh, ZDHHC17 / RFU, NOM1 / Fold change vs veh, NOM1 / RFU, ARL8B / Fold change vs veh, ARL8B / RFU, ZBTB11 / Fold change vs veh, ZBTB11 / RFU, TAMM41 / Fold change vs veh, TAMM41 / RFU, KIAA1704 /// LOC100996395 / Fold change vs veh, KIAA1704 /// LOC100996395 / RFU, ING1 / Fold change vs veh, ING1 / RFU, TRMT61B / Fold change vs veh, TRMT61B / RFU, FUBP3 / Fold change vs veh, FUBP3 / RFU, TP53 / Fold change vs veh, TP53 / RFU, TNKS2 / Fold change vs veh, TNKS2 / RFU, ZFP14 / Fold change vs veh, ZFP14 / RFU, ACTR2 / Fold change vs veh, ACTR2 / RFU, PPP3R1 / Fold change vs veh, PPP3R1 / RFU, PIK3R1 / Fold change vs veh, PIK3R1 / RFU, HNRNPA1 / Fold change vs veh, HNRNPA1 / RFU, RNF170 / Fold change vs veh, RNF170 / RFU, ZNF28 / Fold change vs veh, ZNF28 / RFU, RNGTT / Fold change vs veh, RNGTT / RFU, OGT / Fold change vs veh, OGT / RFU, BRD1 / Fold change vs veh, BRD1 / RFU, MARS / Fold change vs veh, MARS / RFU, ZNF655 / Fold change vs veh, ZNF655 / RFU, FAHD1 / Fold change vs veh, FAHD1 / RFU, BDP1 / Fold change vs veh, BDP1 / RFU, LRRCC1 / Fold change vs veh, LRRCC1 / RFU, ARID1A / Fold change vs veh, ARID1A / RFU, ZNF146 / Fold change vs veh, ZNF146 / RFU, ZNF330 / Fold change vs veh, ZNF330 / RFU, GPN3 / Fold change vs veh, GPN3 / RFU, C9orf123 / Fold change vs veh, C9orf123 / RFU, N4BP2L2 / Fold change vs veh, N4BP2L2 / RFU, ARFIP1 / Fold change vs veh, ARFIP1 / RFU, FAM179B / Fold change vs veh, FAM179B / RFU, BCL10 / Fold change vs veh, BCL10 / RFU, UHRF1BP1L / Fold change vs veh, UHRF1BP1L / RFU, BET1 / Fold change vs veh, BET1 / RFU, CNOT2 / Fold change vs veh, CNOT2 / RFU, ZNF268 / Fold change vs veh, ZNF268 / Fold change vs veh, ZNF507 / RFU, DGCR2 / Fold change vs veh, DGCR2 / RFU, WDSUB1 / Fold change vs veh, WDSUB1 / Fold change vs veh, HSP90B1 /// MIR3652 / RFU, ADSS / Fold change vs veh, ADSS / RFU, GK / Fold change vs veh, GK / RFU, ZNF148 / Fold change vs veh, ZNF148 / RFU, TAF9 / Fold change vs veh, TAF9 / RFU, SLC1A5 / Fold change vs veh, SLC1A5 / RFU, SLMO2 / Fold change vs veh, SLMO2 / RFU, ABCC4 / Fold change vs veh, ABCC4 / RFU, LOC101060439 /// RAP1B / Fold change vs veh, LOC101060439 /// RAP1B / RFU, RFX7 / Fold change vs veh, RFX7 / RFU, GTPBP10 / Fold change vs veh, GTPBP10 / RFU, CNEP1R1 / Fold change vs veh, CNEP1R1 / RFU, BIVM-ERCC5 /// ERCC5 / Fold change vs veh, BIVM-ERCC5 /// ERCC5 / RFU, ILF3 / Fold change vs veh, ILF3 / RFU 11762660_at / Fold change /veh 11762660_at / RFU VCAN (11757783_s_at) / Fold change /veh VCAN (11757783_s_at) / RFU DDX43 (11728927_at) / Fold change /veh DDX43 (11728927_at) / RFU KRT8 (11758188_x_at) / Fold change /veh KRT8 (11758188_x_at) / RFU NKD1 (11759106_at) / Fold change /veh NKD1 (11759106_at) / RFU SRD5A1 (11742802_a_at) / Fold change /veh SRD5A1 (11742802_a_at) / RFU TPSAB1 /// TPSB2 (11721975_s_at) / Fold change /veh TPSAB1 /// TPSB2 (11721975_s_at) / RFU GSTM3 (11746129_a_at) / Fold change /veh GSTM3 (11746129_a_at) / RFU IL23R (11737362_x_at) / Fold change /veh IL23R (11737362_x_at) / RFU TMEM51 (11727254_a_at) / Fold change /veh TMEM51 (11727254_a_at) / RFU PIWIL2 (11732686_x_at) / Fold change /veh PIWIL2 (11732686_x_at) / RFU ORM1 (11744905_x_at) / Fold change /veh ORM1 (11744905_x_at) / RFU CCDC152 (11743942_at) / Fold change /veh CCDC152 (11743942_at) / RFU ECM1 (11717891_a_at) / Fold change /veh ECM1 (11717891_a_at) / RFU IL23R (11748794_a_at) / Fold change /veh IL23R (11748794_a_at) / RFU TNFAIP8L3 (11732012_x_at) / Fold change /veh TNFAIP8L3 (11732012_x_at) / RFU MBOAT4 (11741988_at) / Fold change /veh MBOAT4 (11741988_at) / RFU 11764193_at / Fold change /veh 11764193_at / RFU TMEM53 (11763286_at) / Fold change /veh TMEM53 (11763286_at) / RFU MAGEB2 (11727129_at) / Fold change /veh MAGEB2 (11727129_at) / RFU TMEM200A (11744735_a_at) / Fold change /veh TMEM200A (11744735_a_at) / RFU CCDC152 (11751479_a_at) / Fold change /veh CCDC152 (11751479_a_at) / RFU FAM211A (11726209_a_at) / Fold change /veh FAM211A (11726209_a_at) / RFU RGS16 (11746705_a_at) / Fold change /veh RGS16 (11746705_a_at) / RFU VCAN (11755009_s_at) / Fold change /veh VCAN (11755009_s_at) / RFU RHOB (11743442_s_at) / Fold change /veh RHOB (11743442_s_at) / RFU RGS16 (11720943_a_at) / Fold change /veh RGS16 (11720943_a_at) / RFU RGS16 (11720944_at) / Fold change /veh RGS16 (11720944_at) / RFU, VPS4B / Fold change vs veh, VPS4B / RFU, CREB1 / Fold change vs veh, CREB1 / RFU, DNAJC13 / Fold change vs veh, DNAJC13 / RFU, GNAQ / Fold change vs veh, GNAQ / RFU, CDK5R1 / Fold change vs veh, CDK5R1 / RFU, ZRANB3 / Fold change vs veh, ZRANB3 / RFU, CUL4A / Fold change vs veh, CUL4A / RFU, CCNY / Fold change vs veh, CCNY / RFU, UFL1 / Fold change vs veh, UFL1 / RFU, COG3 / Fold change vs veh, COG3 / RFU, DIAPH2 / Fold change vs veh, DIAPH2 / RFU, SKA2 / Fold change vs veh, SKA2 / RFU, AFF3 / Fold change vs veh, AFF3 / RFU, LMF1 / Fold change vs veh, LMF1 / RFU, IPO11 / Fold change vs veh, IPO11 / RFU, DFFB / Fold change vs veh, DFFB / RFU, FOXP1 / Fold change vs veh, FOXP1 / RFU, CARD8 / Fold change vs veh, CARD8 / RFU, STRN3 / Fold change vs veh, STRN3 / RFU, ADK / Fold change vs veh, ADK / RFU, RASSF2 / Fold change vs veh, RASSF2 / RFU, WIPF1 / Fold change vs veh, WIPF1 / RFU, LARP1B / Fold change vs veh, LARP1B / RFU, RASA1 / Fold change vs veh, RASA1 / RFU, RB1 / Fold change vs veh, RB1 / RFU, PPFIA1 / Fold change vs veh, PPFIA1 / RFU, MAT2A / Fold change vs veh, MAT2A / RFU, CCT5 / Fold change vs veh, CCT5 / RFU, WDR92 / Fold change vs veh, WDR92 / RFU, CUX1 / Fold change vs veh, CUX1 / RFU, TTC7A / Fold change vs veh, TTC7A / RFU, TMEM135 / Fold change vs veh, TMEM135 / RFU, DEPTOR / Fold change vs veh, DEPTOR / RFU, CPM / Fold change vs veh, CPM / RFU, DNAJB6 / Fold change vs veh, DNAJB6 / RFU, CACNA2D3 / Fold change vs veh, CACNA2D3 / RFU, DTX4 / Fold change vs veh, DTX4 / RFU, TFCP2 / Fold change vs veh, TFCP2 / RFU, GMCL1 /// GMCL1P1 / Fold change vs veh, GMCL1 /// GMCL1P1 / RFU, AEBP2 / Fold change vs veh, AEBP2 / RFU, SNHG1 /// SNORD22 /// SNORD25 /// SNORD26 /// SNORD27 /// SNORD28 /// SNORD29 /// SNORD31 / Fold change vs veh, SNHG1 /// SNORD22 /// SNORD25 /// SNORD26 /// SNORD27 /// SNORD28 /// SNORD29 /// SNORD31 / Fold change (Aza/veh), C12orf56 (ProbeSet 11735607_a_at) / Fold change (ACY-1035/veh), C12orf56 (ProbeSet 11735607_a_at) / Fold change (Aza/veh), FGFR1OP (ProbeSet 11751329_s_at) / Fold change (ACY-1035/veh), FGFR1OP (ProbeSet 11751329_s_at) / Fold change (Aza/veh), VPS36 (ProbeSet 11739960_a_at) / Fold change (ACY-1035/veh), VPS36 (ProbeSet 11739960_a_at) / RFU SYPL1 (11715823_x_at) / Fold change /veh SYPL1 (11715823_x_at) / RFU IGFBP7 (11715501_s_at) / Fold change /veh IGFBP7 (11715501_s_at) / RFU REEP3 (11722064_at) / Fold change /veh REEP3 (11722064_at) / RFU IGLL1 (11728026_x_at) / Fold change /veh IGLL1 (11728026_x_at): dose or concentration left out as unconfirmed", "settings": "MV-4-11 cells, 48 hours"}
{"smiles": "Nc1ccc(-c2cccs2)cc1NC(=O)c1ccc2c(c1)cc(C1CC1)n2CCN1CCOCC1", "note": "[ACY-1035]", "values": [{"measurement": "RFU TMEM53 (11763286_at)", "result": 16.39, "unit": "RFU"}]}
